Experimental data taken from the supplement of paper PMC11208160.

Test: recombinant UMI read abundance after kanamycin selection (control-corrected) (log10(CPM+1)); higher = more efficient recombination; extreme values may be limits of the assay; sequences stand for … in AGTGCAGAGAAAATCGGCCAGTTTTCTCTGCCTGCAGTCCGCATGCCGTGGGACCCCTTGGGTTCTAACCTGTTGCCTAGATTTATGCAGCGGACTGCCTTTCTCCCAAAGTGATAAACCGG…AGGTTGGTTTCACT; site = the 11-nt donor
Procedure, shortened: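 Each donor and donor-binding-loop pair was tracked by a 12-nt UMI on a plasmid carrying a promoterless kanamycin gene. With a second plasmid supplying a fixed target and T7-inducible IS621 bridge recombinase, the pool was plated in Escherichia coli on IPTG (0.07 mM) plus kanamycin or unselected. Sequencing of recombinant UMIs across the donor–target junction gave counts expressed as log10(CPM+1) after replicate averaging and control-derived scaling.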
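Further: IS621 bridge recombinase in Escherichia coli cells against a fixed T5 target plasmid.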

| Sequence | recombinant UMI read abundance (log10) |
| --- | --- |
| CGGAATCCATGGACCGGTTTTCCCGGTAATCCGTATTTGTT (site CGTAATACTAA) | 0.00407 |
| CAGGGTGCATGGACCGGTTTTCCCGGTAATCCGTATTTGGT (site CAGGGTGCTAC) | 1.49 |
| ACGAAAACATGGACCGGTTTTCCCGGTAATCCGTATTTGCT (site TCGAAAACTAG) | 0 |
| GAAGTCGCATGGACCGGTTTTCCCGGTAATCCGTATTTGCG (site GTAGTCGCTCG) | 0.023 |
| AGCCGAGCATGGACCGGTTTTCCCGGTAATCCGTATTTGTT (site AGCCAAGCTAA) | 0.398 |
| TTCGCTTCATGGACCGGTTTTCCCGGTAATCCGTATTTGTG (site TTCGCTTCTCA) | 0 |
| AGGGAGTCATGGACCGGTTTTCCCGGTAATCCGTATTTGCA (site AGGAAGACTTG) | 0.426 |
| TAGGGATCATGGACCGGTTTTCCCGGTAATCCGTATTTGCG (site TAGGCATCTCG) | 0.735 |
| AGACAGGCATGGACCGGTTTTCCCGGTAATCCGTATTTGCT (site AGACAGGCTAG) | 2.44 |
| CTAGGCACATGGACCGGTTTTCCCGGTAATCCGTATTTGCA (site CTAGGCACTTG) | 1.67 |
| GGCCACCCATGGACCGGTTTTCCCGGTAATCCGTATTTGTA (site GGCCACCCTCA) | 0.014 |
| AAGTATGCATGGACCGGTTTTCCCGGTAATCCGTATTTGGA (site AACTATGCTTC) | 1.43 |
| CGGAAGCCATGGACCGGTTTTCCCGGTAATCCGTATTTGTC (site CGGAAGCCTGA) | 0 |
| CGGAATCCATGGACCGGTTTTCCCGGTAATCCGTATTTGTT (site CGCAATCCTCA) | 0.00634 |
| CGATGTTCATGGACCGGTTTTCCCGGTAATCCGTATTTGTC (site CGATGTTCTGA) | 2.98 |
| CGGAATCCATGGACCGGTTTTCCCGGTAATCCGTATTTGTT (site CGCACTCCTAA) | 0.0157 |
| TAGTCTTCATGGACCGGTTTTCCCGGTAATCCGTATTTGGT (site TAGCCTTCTAC) | 0.322 |
| CCCCACACATGGACCGGTTTTCCCGGTAATCCGTATTTGTA (site TCCCACACTTA) | 0.0139 |
| ACACGGACATGGACCGGTTTTCCCGGTAATCCGTATTTGTC (site ACACGGACTGA) | 0.491 |
| GCATGCCCATGGACCGGTTTTCCCGGTAATCCGTATTTGAT (site GCATGCCCTAT) | 0.197 |
| AGCAAGGCATGGACCGGTTTTCCCGGTAATCCGTATTTGCA (site AGGAAGACTTG) | 0.0151 |
| TCGACATCATGGACCGGTTTTCCCGGTAATCCGTATTTGCG (site TCGACATCTCG) | 0.266 |
| TAGAATACATGGACCGGTTTTCCCGGTAATCCGTATTTGCA (site TAGAATCCTTG) | 0 |
| ACACGAACATGGACCGGTTTTCCCGGTAATCCGTATTTGAC (site ACACGAACTGA) | 1.64 |
| AGCTATACATGGACCGGTTTTCCCGGTAATCCGTATTTGAC (site ACCTATACTGT) | 0.726 |

| Sequence | recombinant UMI read abundance (log10) |
| --- | --- |
| TACCCTGCATGGACCGGTTTTCCCGGTAATCCGTATTTGCA (site TACCCTGCTTG) | 0 |
| CGGAATCCATGGACCGGTTTTCCCGGTAATCCGTATTTGTT (site CGGAAACCTAA) | 1.09 |
| TAATGAGCATGGACCGGTTTTCCCGGTAATCCGTATTTGGG (site TAATGGGCTCC) | 0.0142 |
| CAAGCCACATGGACCGGTTTTCCCGGTAATCCGTATTTGGG (site CAAGACACTCC) | 0.0254 |
| TCATCCTCATGGACCGGTTTTCCCGGTAATCCGTATTTGCA (site TCATACTCTTG) | 0.933 |
| CGGAATCCATGGACCGGTTTTCCCGGTAATCCGTATTTGTT (site TGCAATCCTAA) | 0.0105 |
| CAAGCGCCATGGACCGGTTTTCCCGGTAATCCGTATTTGTG (site AAAGCGCCTCA) | 0.0176 |
| CAAGCGGCATGGACCGGTTTTCCCGGTAATCCGTATTTGCT (site CAAGCAGCTAG) | 0.584 |
| AAGGCGACATGGACCGGTTTTCCCGGTAATCCGTATTTGCT (site AAGGCGACTAG) | 2.18 |
| AGTAGAACATGGACCGGTTTTCCCGGTAATCCGTATTTGAG (site ACTAGAACTCT) | 0.901 |
| CGATCATCATGGACCGGTTTTCCCGGTAATCCGTATTTGCT (site CGATTATCTTG) | 0 |
| TCAAAGCCATGGACCGGTTTTCCCGGTAATCCGTATTTGAT (site TCAAAGCCTAT) | 0.324 |
| AGCCTTGCATGGACCGGTTTTCCCGGTAATCCGTATTTGAC (site AGCCTTGCTGT) | 1.36 |
| TTCTAGGCATGGACCGGTTTTCCCGGTAATCCGTATTTGGT (site TCCTAGGCTAC) | 0.0191 |
| AAGCGTTCATGGACCGGTTTTCCCGGTAATCCGTATTTGTT (site AAGCGTTCTAA) | 1.52 |
| CCAGGTCCATGGACCGGTTTTCCCGGTAATCCGTATTTGCA (site CCAGGTCCTTG) | 0.421 |
| CACTCCTCATGGACCGGTTTTCCCGGTAATCCGTATTTGCA (site CACTCCTCTTG) | 2.98 |
| GTGCACGCATGGACCGGTTTTCCCGGTAATCCGTATTTGGT (site GTGCATGCTAC) | 0.0143 |
| CAATCGACATGGACCGGTTTTCCCGGTAATCCGTATTTGGG (site CACTCGACTCC) | 0.335 |
| CGAAGACCATGGACCGGTTTTCCCGGTAATCCGTATTTGGG (site CGATGACCTCC) | 0.006 |
| CTGTCGCCATGGACCGGTTTTCCCGGTAATCCGTATTTGCA (site CTGTCGCCTTG) | 0 |
| AATTATCCATGGACCGGTTTTCCCGGTAATCCGTATTTGGA (site AATTATCCTTC) | 0 |
| AAACGTCCATGGACCGGTTTTCCCGGTAATCCGTATTTGAT (site AACCGTCCTAT) | 0.00727 |
| GTTATTCCATGGACCGGTTTTCCCGGTAATCCGTATTTGGT (site GTTCTTCCTAC) | 0 |
| CGATCATCATGGACCGGTTTTCCCGGTAATCCGTATTTGCT (site GGAACATCTAG) | 0.00516 |

| Sequence | recombinant UMI read abundance (log10) |
| --- | --- |
| GACAAACCATGGACCGGTTTTCCCGGTAATCCGTATTTGGT (site GAGAAACCTAC) | 0 |
| TTTCTAGCATGGACCGGTTTTCCCGGTAATCCGTATTTGGT (site TTTCTAGCTAC) | 0.0163 |
| AGGAAGCCATGGACCGGTTTTCCCGGTAATCCGTATTTGCA (site AGGAAGACTTG) | 0 |
| CCTAATGCATGGACCGGTTTTCCCGGTAATCCGTATTTGGC (site CCTAATTCTGC) | 0 |
| GCTACTGCATGGACCGGTTTTCCCGGTAATCCGTATTTGCC (site GATACTGCTGG) | 0 |
| CGAGCATCATGGACCGGTTTTCCCGGTAATCCGTATTTGCT (site CGAACATCTAG) | 0 |
| TTCTAGTCATGGACCGGTTTTCCCGGTAATCCGTATTTGAC (site TTCTAGTCTGT) | 0 |
| CTTCTCTCATGGACCGGTTTTCCCGGTAATCCGTATTTGTA (site CTTCTCTCTCA) | 0.552 |
| GGGGCATCATGGACCGGTTTTCCCGGTAATCCGTATTTGCA (site GGGGCAGCTTG) | 0 |
| GTCAATCCATGGACCGGTTTTCCCGGTAATCCGTATTTGAA (site GACAATCCTTT) | 0 |
| AGGGACACATGGACCGGTTTTCCCGGTAATCCGTATTTGGC (site AGGGACACTGC) | 2.93 |
| GTGCTACCATGGACCGGTTTTCCCGGTAATCCGTATTTGGG (site GTGCTACCTCC) | 0.0107 |
| ATCCTAGCATGGACCGGTTTTCCCGGTAATCCGTATTTGTT (site AGCCTAGCTAA) | 0.0169 |
| TTGCATGCATGGACCGGTTTTCCCGGTAATCCGTATTTGGT (site ATGCATGCTAC) | 0.00895 |
| GCCACGCCATGGACCGGTTTTCCCGGTAATCCGTATTTGTC (site GCCACGCCTGA) | 1.03 |
| GTAGTCGCATGGACCGGTTTTCCCGGTAATCCGTATTTGCA (site GTAGTCGCTGG) | 0.873 |
| ACGACTACATGGACCGGTTTTCCCGGTAATCCGTATTTGAC (site ATGACTACTGT) | 1.69 |
| TCCACCGCATGGACCGGTTTTCCCGGTAATCCGTATTTGCG (site TCCACCGCTCT) | 0.0151 |
| TCCTTGACATGGACCGGTTTTCCCGGTAATCCGTATTTGCT (site TCCTTGACTAG) | 0 |
| CCTTTGCCATGGACCGGTTTTCCCGGTAATCCGTATTTGGC (site CCTTTGCCTGC) | 0 |
| ATAAGGCCATGGACCGGTTTTCCCGGTAATCCGTATTTGAG (site ATAAGGCCTGT) | 0 |
| ATGCTACCATGGACCGGTTTTCCCGGTAATCCGTATTTGCT (site TTGCTACCTAG) | 0 |
| ATCAAGGCATGGACCGGTTTTCCCGGTAATCCGTATTTGCG (site ATCAAGGCTCG) | 1.32 |
| CGTTAGACATGGACCGGTTTTCCCGGTAATCCGTATTTGAG (site CGTTATACTCT) | 0.0136 |
| AATAGTGCATGGACCGGTTTTCCCGGTAATCCGTATTTGGT (site AATAGTGCTAC) | 1.23 |
